Experiments:
Assay type in all cases: biochemical
VmeNucC [1] = biological target: T1, VmeNucC (Vibrio metoecus, UniProt P0DUD6); test: Effect of ATP on NucC nuclease activity (fluorescent DNA duplex reporter)
T1 construct: His8 (TEV-cleavable, vector pEV5HisTEV) (N, cleaved yes); made in house; host or cells: E. coli C43(DE3)
Experimental: FIG. 4: Factors influencing NucC activity. Relative activities were determined by comparing the relative increase in fluorescence signal over time. A: Effect of NaCl concentration. B: NucC activity in different buffers. C: Effect of ATP on NucC nuclease activity.
(§1) All assays were performed on a FluoStar Omega plate reader (BMG Labtech) using fluorescence detection (λex/em 544/590 nm) and Corning black, non-binding half-area 96-well plates. […] Fluorescence was measured in 30 s intervals at 37° C. for up to 60 min. […] To determine limit of detection, the means of fluorescence intensities ranging between 28 and 32 min was analysed by one-way ANOVA and for multiple comparisons the Brown-Forsythe and Welch ANOVA test was applied. […] Relative activities between reaction conditions was determined by comparing the relative rates of the reactions. Rates were assumed to be proportional to the change in fluorescence signal over time and calculated from the slopes of linear regression analysis. Target specificity was analysed by extracting the time point (Tt) when the fluorescence intensity crossed a threshold value. The threshold value was set to ⅛^th of the maximal measured fluorescence signal of the reference target. […]

VmeNucC [2] = biological target: T1, VmeNucC; test: NucC assay using synthetic cA3 as activator; details: FIG. 6
Experimental: FIG. 6: NucC assay using synthetic cA3 as activator. A: Selected fluorescence signal curves. B: The fluorescence intensities of measurements from 28-30 min reaction time were used for one-way ANOVA analysis. Multiplicity adjusted P values were calculated by Dunnett's multiple comparisons test (N=7). The assay was performed in duplicate. C: selected data from B with expanded y scale. ns: not significant, P value>0.05; ***: P value<0.001; ****: P value<0.0001.
as §1, with “value.” for “value. The threshold value was set to ⅛^th of the maximal measured fluorescence signal of the reference target.”

NucC = biological target: T2, NucC (Vibrio metoecus, UniProt P0DUD6); test: Degradation of cA3 by NucC, liquid chromatography with UV detection; details: 100 μM cA3 with 0.5 μM NucC in reaction buffer for 60 min
T2 construct: His8 (TEV-cleavable, vector pEV5HisTEV) (N, cleaved yes); made in house; host or cells: E. coli C43(DE3)
Experimental: LC chromatograms with UV monitoring at 254 nm showing the reaction of 100 μM cA3 with 0.5 μM NucC under assay conditions after 15 and 60 min. A reaction in which NucC had been omitted was allowed to proceed for 60 min.
Some Csx1/Csm6 family proteins have an intrinsic “ring nuclease” activity for the degradation of their cOA activator—an activity that is probably important in vivo for the control of the CRISPR mediated immune response (9). In the context of assay development however, this is an undesirable characteristic. Furthermore, it is difficult to remove this activity from Csx1/Csm6 family proteins as the activity is closely linked with cOA binding and/or with the HEPN ribonuclease activity (18, 19). To determine whether NucC degrades its cA3 activator, we incubated 100 μM cA3 with […] NucC in reaction buffer for 60 min and monitored the products by liquid chromatography and UV detection (FIG. 5) after removal of the enzyme by ultracentrifugation (MWCO 3 kDa). […] This is perhaps not surprising given that NucC is a double stranded DNase and the activator is a cyclic ribonucleotide.

T1 sequence (P0DUD6 whole entry): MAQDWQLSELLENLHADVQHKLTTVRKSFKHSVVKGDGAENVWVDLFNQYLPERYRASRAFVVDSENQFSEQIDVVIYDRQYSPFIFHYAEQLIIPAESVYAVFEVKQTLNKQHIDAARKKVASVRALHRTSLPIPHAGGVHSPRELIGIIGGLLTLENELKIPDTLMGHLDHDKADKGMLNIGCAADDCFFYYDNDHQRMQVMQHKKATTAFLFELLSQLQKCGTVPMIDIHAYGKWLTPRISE
T2 sequence (P0DUD6 whole entry): as above

Compound	NucC activity retained (VmeNucC [1]; ATP concentration of 2 mM) [%]	effect of ATP on NucC (VmeNucC [1]; ATP concentrations above 500 μM)	amount of synthetic cyclic nucleotide giving a clear signal (VmeNucC [2]) [pM]	depletion of cA3 by NucC (NucC)
Nc1ncnc2c1ncn2[C@@H]1O[C@H](COP(=O)(O)OP(=O)(O)OP(=O)(O)O)[C@@H](O)[C@H]1O [ATP]	50	minor adverse effect	–	–
Nc1ncnc2c1ncn2[C@@H]1O[C@@H]2COP(=O)(O)O[C@H]3[C@@H](O)[C@H](n4cnc5c(N)ncnc54)O[C@@H]3COP(=O)(O)O[C@H]3[C@@H](O)[C@H](n4cnc5c(N)ncnc54)O[C@@H]3COP(=O)(O)O[C@H]2[C@H]1O [cA3, cyclic tri-adenylate]	–	–	≤ 10	no significant depletion
